The text below walks through data of patent US4002733A, “Sunscreening compositions” (Minnesota Mining and Manufacturing Company, priority 1974, dated 1977).

The data set in a line: UV absorption of the product in solution (absorption maximum, Epsilon value). To be noted: solvent not stated. The format is physicochemical.

`CCC(=O)c1ccc(NC(=O)CCCCCCCCC(=O)Nc2ccc(C(=O)CC)cc2)cc1` [Example 4]: the absorption maxima is 292 nm and the “molar extinction coefficient (Epsilon value)” value is listed as 48,000.
